Holding throughout (test): relative viability (nuclei count vs DMSO), 5 days (fraction); higher = more cells survive
Compound in test [1]: CC1=C(C(=NN1)C)CC2=C(C3=C(S2)N(C(=O)N(C3=O)C)CC(C)C)C(=O)N4C[C@@H](CO4)O
In a few lines: (§1)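 Lung cancer cell lines in 1536-well plates were exposed by pinning to five library-drug doses (not always all listed) √10 apart, following an overnight hold at 37 °C. MetaXpress counted Hoechst-stained nuclei from 4× images taken after 5 days without medium change. Viability is the median ratio of treated-well to vehicle-well nuclei across plates. Plates required control CV below 25% and at least one doubling.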

Compound in a further test: Cc1ccccc1C(C(=O)NC1CCCCC1)N(C(=O)Cn1ccnc1C)c1cccc(F)c1 [IDH-C35]
A digest of the protocol: as §1

Compound in test [2]: CC1=C(C(=NN1)C)CC2=C(C3=C(S2)N(C(=O)N(C3=O)C)CC(C)C)C(=O)N4C[C@@H](CO4)O + Cc1nc(NC(=O)N2CCC[C@H]2C(N)=O)sc1-c1ccnc(C(C)(C)C(F)(F)F)c1 [Alpelisib] (partner 2 µM)
In a few lines: (§2)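 One day after seeding in 1536-well plates, lung cancer cell lines were dosed by pin tool. Dosing was either single-drug or a fixed anchor-drug dose plus five library-drug doses (not always all listed) in √10 steps. After 5 days, nuclei were stained in one fix-and-stain step and counted on 4× images, and relative viability is the nuclei count of treated wells over that of vehicle wells, given as the median of duplicate plates.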

Compound in the test “IDH-C35 + Pemetrexed”: Cc1ccccc1C(C(=O)NC1CCCCC1)N(C(=O)Cn1ccnc1C)c1cccc(F)c1 [IDH-C35] + Nc1nc2[nH]cc(CCc3ccc(C(=O)N[C@@H](CCC(=O)O)C(=O)O)cc3)c2c(=O)[nH]1 [Pemetrexed] (partner 0.2 µM)
A digest of the protocol:
as §2

As to COR-L23, the relative viability in test [1] (0.0025 µM) was found to be 0.965; in test [1] (0.007906 µM), 1.08; in test [1] (0.025 µM), 0.919; in test [1] (0.07906 µM) it was 0.933; in test [1] (0.25 µM), 0.976; in the test with IDH-C35 (0.08 µM) it was 1.1. Also, the relative viability was 1.08 with IDH-C35 (0.253 µM); 1.01 in the test with IDH-C35 (0.8 µM); 0.995 with IDH-C35 (2.53 µM); 0.978 with IDH-C35 (8 µM); 0.782 in test [2] (first compound 0.0025 µM); 0.709 in test [2] (first compound 0.007906 µM). Also, the relative viability in test [2] (first compound 0.025 µM) was 0.59; in test [2] (first compound 0.07906 µM) it was 0.759; in test [2] (first compound 0.25 µM), 0.739; with IDH-C35 + Pemetrexed (first compound 0.08 µM), 0.18; with IDH-C35 + Pemetrexed (first compound 0.253 µM), 0.205; in the test with IDH-C35 + Pemetrexed (first compound 0.8 µM), 0.2. Besides, the figures for the relative viability with IDH-C35 + Pemetrexed (first compound 2.53 µM) and in the test with IDH-C35 + Pemetrexed (first compound 8 µM) were 0.201 and 0.173, respectively.

On to COR-L 105, for which the relative viability in test [1] (0.0025 µM) came to 0.952; in test [1] (0.007906 µM) it was 0.976; in test [1] (0.025 µM), 0.897; in test [1] (0.07906 µM) it was 0.897; in test [1] (0.25 µM), 1.02; with IDH-C35 (0.08 µM) it was 0.897. The relative viability came to 0.921 in the test with IDH-C35 (0.253 µM); 0.926 with IDH-C35 (0.8 µM); 0.863 in the test with IDH-C35 (2.53 µM); 0.91 with IDH-C35 (8 µM); 1.03 in test [2] (first compound 0.0025 µM); 0.896 in test [2] (first compound 0.007906 µM). Moreover, the relative viability turned out to be 1.12 in test [2] (first compound 0.025 µM); 1.01 in test [2] (first compound 0.07906 µM); 0.999 in test [2] (first compound 0.25 µM); 1.03 in the test with IDH-C35 + Pemetrexed (first compound 0.08 µM); 1.19 with IDH-C35 + Pemetrexed (first compound 0.253 µM); 0.954 with IDH-C35 + Pemetrexed (first compound 0.8 µM). Moreover, the relative viability was found to be 0.912 with IDH-C35 + Pemetrexed (first compound 2.53 µM) and 1 with IDH-C35 + Pemetrexed (first compound 8 µM).

In the case of EKVX, the relative viability turned out to be 1.08 in test [1] (0.0025 µM); 1.03 in test [1] (0.007906 µM); 0.952 in test [1] (0.025 µM); 0.883 in test [1] (0.07906 µM); 0.989 in test [1] (0.25 µM); 0.991 in the test with IDH-C35 (0.08 µM). In addition, the relative viability was 0.991 with IDH-C35 (0.253 µM); 0.922 in the test with IDH-C35 (0.8 µM); 0.861 with IDH-C35 (2.53 µM); 0.997 in the test with IDH-C35 (8 µM); 0.906 in test [2] (first compound 0.0025 µM); 1.07 in test [2] (first compound 0.007906 µM). Moreover, the relative viability in test [2] (first compound 0.025 µM) was determined as 0.835; in test [2] (first compound 0.07906 µM), 0.923; in test [2] (first compound 0.25 µM), 0.734; with IDH-C35 + Pemetrexed (first compound 0.08 µM), 0.443; with IDH-C35 + Pemetrexed (first compound 0.253 µM), 0.332; in the test with IDH-C35 + Pemetrexed (first compound 0.8 µM), 0.395. Besides, the relative viability in the test with IDH-C35 + Pemetrexed (first compound 2.53 µM) is 0.369; with IDH-C35 + Pemetrexed (first compound 8 µM), 0.42.

On to EMC-BAC-2, for which the relative viability in test [1] (0.0025 µM) was found to be 1.07; in test [1] (0.007906 µM) it was 1.11; in test [1] (0.025 µM), 0.898; in test [1] (0.07906 µM), 0.995; in test [1] (0.25 µM), 1.05; with IDH-C35 (0.08 µM) it was 0.962. Further, the relative viability in the test with IDH-C35 (0.253 µM) is 0.988; in the test with IDH-C35 (0.8 µM) it was 1; with IDH-C35 (2.53 µM) it was 0.987; in the test with IDH-C35 (8 µM), 1.03; in test [2] (first compound 0.0025 µM), 0.809; in test [2] (first compound 0.007906 µM) it was 0.854. Moreover, the relative viability in test [2] (first compound 0.025 µM) worked out at 0.721; in test [2] (first compound 0.07906 µM), 0.691; in test [2] (first compound 0.25 µM) it was 0.814; in the test with IDH-C35 + Pemetrexed (first compound 0.08 µM), 0.457; in the test with IDH-C35 + Pemetrexed (first compound 0.253 µM), 0.477; with IDH-C35 + Pemetrexed (first compound 0.8 µM), 0.473. In addition, the relative viability in the test with IDH-C35 + Pemetrexed (first compound 2.53 µM) was 0.463; with IDH-C35 + Pemetrexed (first compound 8 µM) it was 0.398.

Turning to EPLC-272H, the relative viability in test [1] (0.0025 µM) is 1.02; in test [1] (0.007906 µM), 0.906; in test [1] (0.025 µM) it was 0.968; in test [1] (0.07906 µM), 0.974; in test [1] (0.25 µM) it was 1.01; in the test with IDH-C35 (0.08 µM), 0.935. The relative viability with IDH-C35 (0.253 µM) amounted to 1.04; with IDH-C35 (0.8 µM), 0.898; in the test with IDH-C35 (2.53 µM) it was 0.76; with IDH-C35 (8 µM), 0.882; in test [2] (first compound 0.0025 µM), 0.99; in test [2] (first compound 0.007906 µM) it was 0.943. For the same cell line, the relative viability came to 0.99 in test [2] (first compound 0.025 µM); 0.899 in test [2] (first compound 0.07906 µM); 0.829 in test [2] (first compound 0.25 µM); 0.276 with IDH-C35 + Pemetrexed (first compound 0.08 µM); 0.388 with IDH-C35 + Pemetrexed (first compound 0.253 µM); 0.397 with IDH-C35 + Pemetrexed (first compound 0.8 µM). Further, the figures for the relative viability with IDH-C35 + Pemetrexed (first compound 2.53 µM) and in the test with IDH-C35 + Pemetrexed (first compound 8 µM) were 0.34 and 0.394, respectively.

Consider H3255, for which the relative viability in test [1] (0.0025 µM) worked out at 1.01; in test [1] (0.007906 µM), 0.925; in test [1] (0.025 µM) it was 0.866; in test [1] (0.07906 µM), 0.94; in test [1] (0.25 µM), 1.1; in the test with IDH-C35 (0.08 µM), 0.955. Besides, the relative viability stood at 1 with IDH-C35 (0.253 µM); 0.988 with IDH-C35 (0.8 µM); 0.978 in the test with IDH-C35 (2.53 µM); 1.11 with IDH-C35 (8 µM); 0.768 in test [2] (first compound 0.0025 µM); 0.676 in test [2] (first compound 0.007906 µM). Also, the relative viability in test [2] (first compound 0.025 µM) was 0.697; in test [2] (first compound 0.07906 µM), 0.759; in test [2] (first compound 0.25 µM) it was 0.736; with IDH-C35 + Pemetrexed (first compound 0.08 µM), 0.595; with IDH-C35 + Pemetrexed (first compound 0.253 µM), 0.589; in the test with IDH-C35 + Pemetrexed (first compound 0.8 µM), 0.573. In addition, the relative viability with IDH-C35 + Pemetrexed (first compound 2.53 µM) stood at 0.632; with IDH-C35 + Pemetrexed (first compound 8 µM), 0.499.

For HARA, the relative viability is 1.03 in test [1] (0.0025 µM); 1.05 in test [1] (0.007906 µM); 1.01 in test [1] (0.025 µM); 1.02 in test [1] (0.07906 µM); 1 in test [1] (0.25 µM); 1 with IDH-C35 (0.08 µM). Also, the relative viability is 0.949 with IDH-C35 (0.253 µM); 0.915 with IDH-C35 (0.8 µM); 1.03 with IDH-C35 (2.53 µM); 0.931 in the test with IDH-C35 (8 µM); 1.01 in test [2] (first compound 0.0025 µM); 0.922 in test [2] (first compound 0.007906 µM). Besides, the relative viability in test [2] (first compound 0.025 µM) was determined as 0.837; in test [2] (first compound 0.07906 µM), 0.768; in test [2] (first compound 0.25 µM) it was 0.801; with IDH-C35 + Pemetrexed (first compound 0.08 µM), 0.278; with IDH-C35 + Pemetrexed (first compound 0.253 µM) it was 0.239; with IDH-C35 + Pemetrexed (first compound 0.8 µM), 0.326. For the same cell line, the relative viability with IDH-C35 + Pemetrexed (first compound 2.53 µM) came to 0.256; with IDH-C35 + Pemetrexed (first compound 8 µM), 0.254.

The record behind these values is the supplement of paper PMC10307832.
